In patent publication US20200368315A1, “ANTIMICROBIAL PEPTIDES AND ADMIXTURES THEREOF SHOWING ANTIMICROBIAL ACTIVITY AGAINST GRAM-NEGATIVE PATHOGENS” (priority 2017, published 2020):
Like-named read-outs stand apart in the source and are kept apart here. No end group written: not given here.

Assays:
[1] = tested on: K. pneumoniae LMG20218; conditions: for MICb: MIC of GNP alone; for MICbc: MIC of GNP in combination with vancomycin at the MICac concentration; for MICac: MIC of vancomycin in combination with the GNP at the MICbc concentration
Protocol: (§1) The test of synergistic effect was processed by conducting standard chequerboard broth microdilution assays. […] Row 11 are used as growth control with no peptide was included, while row 12 with MHB medium-only wells was included as a sterility control as referred before. 50 uL fresh bacterial suspension was added to well 1-11 and final volume of each well on the plate is 100 uL.
(§2) The test of synergistic effect was processed as method 1.4.
(§3) To determine whether the combination therapy is additive, synergistic or antagonistic, fractional inhibitory concentration (FIC) indices were calculated. FICI=FICa+FICb=MICac/MICa+MICbc/MICb. The MICa/MICb is the MIC of compound A/B alone. MICac is the MIC of compound A in combination with compound B and MICbc is the MIC of compound B when it was combination with compound A. […]. FICa is FIC of compound A while FICb is FIC of compound B. The FICI is interpreted as follows: synergistic, FICI≤0.5; additive, 0.5<FICI<1; indifferent, 1<FICI<2; antagonistic, FICI>2.

[2] = tested on: E. coli LMG15862; conditions: for MICb: MIC of GNP alone; for MICbc: MIC of GNP in combination with vancomycin at the MICac concentration; for MICac: MIC of vancomycin in combination with the GNP at the MICbc concentration
Protocol: as §1, §2, §3

[3] = tested on: A. baumannii LMG01041; conditions: for MICb: MIC of GNP alone; for MICbc: MIC of GNP in combination with vancomycin at the MICac concentration; for MICac: MIC of vancomycin in combination with the GNP at the MICbc concentration
Protocol: as §1, §2, §3

[4] = tested on: P. aeruginosa LMG 6395; conditions: for MICb: MIC of GNP alone; for MICbc: MIC of GNP in combination with vancomycin at the MICac concentration; for MICac: MIC of vancomycin in combination with the GNP at the MICbc concentration
Protocol: as §1, §2, §3

[5] = tested on: E. aerogenes LMG 02094; conditions: for MICb: MIC of GNP alone
Protocol: as §1, §2, §3

[6] = tested on: A. baumannii LMG01041; format: cell-based, Acinetobacter baumannii; conditions: for MICb: MIC of GNP alone; for MICbc: MIC of GNP when used with the MICac concentration of nisin; for MICac: MIC of nisin in combination with the GNP at the MICbc concentration
Text: (§4) The test of synergistic effect was processed by conducting standard chequerboard broth microdilution assays. Nisin (Drug X) was loaded two fold serially diluted from row 1 to 10 in X-axis while GNPs (Drug Y) were loaded in eight two fold serially diluted concentrations from line A to H in Y-axis (FIG. 1). The original concentrations of peptides were MICs of each. Row 11 are used as growth control with no peptide was included, while row 12 with MHB medium-only wells was included as a sterility control as referred before. 50 uL fresh bacterial suspension was added to well 1-11 and final volume of each well on the plate is 100 uL.
as §3

[7] = tested on: E. coli LMG15862; format: cell-based, Escherichia coli; conditions: for MICb: MIC of GNP alone; for MICbc: MIC of GNP when used with the MICac concentration of nisin; for MICac: MIC of nisin in combination with the GNP at the MICbc concentration
Text: as §4, §3

[8] = tested on: E. aerogenes LMG 02094; format: cell-based, Enterobacter aerogenes; conditions: for MICb: MIC of GNP alone
Text: as §4, §3

[9] = tested on: K. pneumoniae LMG20218; format: cell-based, Klebsiella pneumoniae; conditions: for MICb: MIC of GNP alone; for MICbc: MIC of GNP when used with the MICac concentration of nisin; for MICac: MIC of nisin in combination with the GNP at the MICbc concentration
Text: as §4, §3

[10] = tested on: P. aeruginosa LMG 6395; format: cell-based, Pseudomonas aeruginosa; conditions: for MICb: MIC of GNP alone; for MICbc: MIC of GNP when used with the MICac concentration of nisin; for MICac: MIC of nisin in combination with the GNP at the MICbc concentration
Text: as §4, §3

[11] = tested on: A. baumannii LMG01041; test: microbe, parasite or virus in culture; format: cell-based, Acinetobacter baumannii; conditions: LMG01041
Protocol: (§5) Escherichia coli, Klebsiella pneumoniae, Pseudomonas aeruginosa, Acinetobacter baumannii, Enterobacter aerogenes were grown in Luria-Bertani (LB) broth shaken (200 rpm) or on LB agar at 37° C. […] MICs tests were performed in duplicate by a liquid growth inhibition microdilution assays in sterilized polypropylene microtiter plates according to Wiegand and […] [27]. […] The suspension was diluted in a ratio of 1:100 using Mueller Hinton Broth (MHB) and the final inoculum is 5*10^5 CFU/mL. […] The antimicrobials were diluted serially by 1/2 one by one and 50 uL diluted bacterial suspension were added to each well to make the final volume to be 100 uL. Growth control was accomplished by remove 10 uL from well 11 and dilute 1000 times to plate 1/10 suspension on the solid medium. […] The number of colonies on the control agar plate should be around 50 to ensure the concentration of the inoculum and the effectiveness of the experiment. The lowest concentration of the antimicrobials that inhibits visible growth of the indicator is identified as MIC.

[12] = tested on: E. coli LMG15862; test: microbe, parasite or virus in culture; format: cell-based, Escherichia coli; conditions: L-form GNP; E. coli LMG15862; Table 6
Protocol: as §5

[13] = tested on: K. pneumoniae LMG20218; test: microbe, parasite or virus in culture; format: cell-based, Klebsiella pneumoniae; conditions: LMG20218
Protocol: as §5

[14] = tested on: E. aerogenes LMG 02094; test: microbe, parasite or virus in culture; format: cell-based, Enterobacter aerogenes; conditions: LMG 02094
Protocol: as §5

[15] = tested on: P. aeruginosa LMG 6395; test: microbe, parasite or virus in culture; format: cell-based, Pseudomonas aeruginosa; conditions: LMG 6395
Protocol: as §5

| Substance | MICb [1] [µM] | MICbc [1] [µM] | MICac [1] [µM] | MICb [2] [µM] | MICbc [2] [µM] | MICac [2] [µM] | MICb [3] [µM] | MICb [4] [µM] | MICbc [4] [µM] | MICac [4] [µM] | MICb [5] [µM] | MICb [6] [µM] | MICb [7] [µM] | MICbc [7] [µM] | MICac [7] [µM] | MICb [8] [µM] | MICb [9] [µM] | MICb [10] [µM] | MICbc [10] [µM] | MICac [10] [µM] | other results |
| --- | --- | --- | --- | --- | --- | --- | --- | --- | --- | --- | --- | --- | --- | --- | --- | --- | --- | --- | --- | --- | --- |
| KIVQRIKKWLR-NH2 [GNP8-2] | 32 | 8 | 16 | 16 | 2 | 4 | 128 | 16 | 2 | 16 | 256 | 128 | 16 | 2 | 1.5 | 256 | 32 | 16 | 4 | 4.5 | MICbc [3]: 4 µM; MICac [3]: 4 µM; MICbc ([5]; MIC of GNP in combination with vancomycin at the MICac concentration): 16 µM; MICac ([5]; MIC of vancomycin in combination with the GNP at the MICbc concentration): 12 µM; MICbc [6]: 16 µM; MICac [6]: 0.375 µM; MICbc ([8]; MIC of GNP when used with the MICac concentration of nisin): 1 µM; MICac ([8]; MIC of nisin in combination with the GNP at the MICbc concentration): 4 µM; MICbc [9]: 2 µM; MICac [9]: 0.75 µM |
| KRIVQRIKKWLR-NH2 [GNP-9] |  |  |  |  |  |  |  |  |  |  |  |  |  |  |  |  |  |  |  |  | MICb (MIC of GNP alone) [11]: 16 µM; MICb (GNP concentration when used alone) [12]: 4 µM; MICb (MIC of GNP alone) [13]: 64 µM; MICb (MIC of GNP alone) [14]: >32 µM; MICb (MIC of GNP alone) [15]: 16 µM |
| RIKRRIKKWLR-NH2 [GNP8-5] | >256 |  |  | 24 | 3 | 4 | >256 | 32 | 8 | 16 | >256 | >256 | 24 | 3 | 3 | >256 | >256 | 32 | 8 | 9 |  |
| RIRKRIKKWLR-NH2 [GNP8-4] | >256 |  |  | 16 | 2 | 4 | >256 | 16 | 8 | 4 | >256 | >256 | 16 | 2 | 3 | >256 | >256 | 16 | 4 | 2.25 |  |
| RIVQRIKKWL-NH2 [GNP8-1] | 64 | 8 | 16 | 32 | 4 | 8 | 128 | 16 | 2 | 16 | >256 | 128 | 32 | 4 | 1.5 | >256 | 64 | 16 | 4 | 4.5 | MICbc [3]: 16 µM; MICac [3]: 1 µM; MICbc [6]: 16 µM; MICac [6]: 0.375 µM; MICbc [9]: 1 µM; MICac [9]: 3 µM |
| RIVQRIKKWR-NH2 [GNP8-6] | >256 |  |  | 256 | 16 | 8 | >256 | >256 |  |  | >256 | >256 | 256 | 64 | 6 | >256 | >256 | >256 |  |  |  |
